The source of these data is patent publication US20070173535A1, “Oxadiazoles having antiproliferative activity” (priority 2002, published 2007).

For assay [1], the system named is MCF7 breast, NCI-H460 microcitoma and SF-268 SNC. Put plainly: NCI preliminary tests on three cell lines, mean GI50. Type of assay: cell-based, human. The settings on record: mean concentration causing 50% inhibition of cell growth; N.A. = inactive in preliminary tests on three cell lines. The method, then:
(§1) Biological assays were carried out at the National Cancer Institute according to known experimental protocols [(a) Monks A., Scudiero D., Skehan P., Shoemaker R., Paull K., Vistica D., Hose C., Langley J., Cronise P., Vaigro-Wolff A., Gray-Goodrich M., Campbell H., Mayo J., Boyd M., J. Natl. Cancer Inst., 83, 757-766 (1991). (b) Paull K. D., Shoemaker R. H., Hods L., Monks A., Scudiero D. A., Rubinstein L., Plowman J., Boyd M. R., J. Natl. Cancer Inst., 81, 1088-1092 (1989). (c) Boyd M. R., Paull K. D., Rubinstein L. R., Cytotoxic Anticancer Drugs: Models and Concept for Drug discovery, Valeriote F. A., Corbett T., Baker L., Eds., Kluwer Academic Publishers: Amsterdam, 1992, pp. 11].
Table 1 reports the GI50, namely the mean concentration (μM) of substance which causes a 50% inhibition on the cell growth in preliminary tests carried out on three cell lines (MCF7 breast, NCI-H460 microcitoma and SF-268 SNC).

In the next assay the test system is Leukemia. Description: NCI GI50 on tumor cells, leukemia. It is filed as cell-based, human. The settings on record: Leukemia cell lines; NA = inactive products. Here is the method: as §1
In the next assay the test system is Microcitoma. Put plainly: NCI GI50 on tumor cells, microcitoma. Type of assay: cell-based, human. The settings on record: Microcitoma cell lines; NA = inactive products. Here is the method: as §1
For the next assay, the system named is Colon. Put plainly: NCI GI50 on tumor cells, colon. It is filed as cell-based, human. As to conditions: Colon cell lines; NA = inactive products. The method, then:
as §1

The test system of the next assay is SNC. Put plainly: NCI GI50 on tumor cells, SNC. It is filed as cell-based, human. The settings on record: SNC cell lines; NA = inactive products. The method, then: as §1
The test system of another assay is Melanoma. Put plainly: NCI GI50 on tumor cells, melanoma. It is filed as cell-based, human. As to conditions: Melanoma cell lines; NA = inactive products. Here is the method: as §1
The subject of another assay is Ovary. Put plainly: NCI GI50 on tumor cells, ovary. The settings on record: Ovary cell lines; NA = inactive products. It is filed as cell-based, human. Here is the method: as §1
The test system of the next assay is Kidney. Put plainly: NCI GI50 on tumor cells, kidney. It is filed as cell-based, human. The settings on record: Kidney cell lines; NA = inactive products. The method, then: as §1
The next assay relates to Prostate. Description: NCI GI50 on tumor cells, prostate. Type of assay: cell-based, human. The settings on record: Prostate cell lines; NA = inactive products. Here is the method:
as §1

The test system of the next assay is Breast. Description: NCI GI50 on tumor cells, breast. Type of assay: cell-based, human. As to conditions: Breast cell lines; NA = inactive products. Here is the method: as §1
The subject of assay [2] is 60 human tumor cell lines. Description: NCI primary screening on 60 human tumor cell lines, mean over various tumor cells. It is filed as cell-based. As to conditions: for antiproliferative activity: in words, in both cases (three-cell-line preliminary tests and various tumor cells); for GI50 Mean: mean over the tumor cell panels, NA = inactive products. The method, then: The cytotoxic activity of compounds (I) was evidenced in primary screening studies on 60 human tumor cell lines.
as §1

One may read the GI50 as the concentration that inhibits growth by half.

On to `c1ccc(-c2nnc(-c3c[nH]c4c3ccc3ccccc34)o2)cc1` [Il, 3-[[1,3,4]oxadiazole-5′-phenyl-2′-yl]-1H-benzo[g]indole], for which the “GI50 μM) Mean” value in assay [1] came to 1.28 µM. Further, the GI50 in the assay with Leukemia was 0.64 µM; in the assay on Microcitoma it was 2.36 µM; with Colon, 0.7 µM; in the assay with SNC, 1.21 µM; in the assay with Melanoma it was 2.71 µM; in the assay on Ovary, 1.7 µM. For the same compound, the GI50 in the assay on Kidney was 2.04 µM; in the assay with Prostate, 1.28 µM; with Breast it was 0.6 µM. Besides, the antiproliferative activity result in assay [2] is on record as “significant antiproliferative activity”. Also, the “GI50 Mean” value in assay [2] is 1.28 µM.

`Cc1nnc(-c2c[nH]c3c2Cc2ccccc2-3)o1` [Ib, 3-[[1,3,4]oxadiazole-5′-methyl-2′-yl]-1,4-dihydro-indeno[1,2-b]pyrrole]: the “GI50 μM) Mean” value in assay [1] worked out at 75.8 µM. The GI50 in the assay with Leukemia was found to be 81.3 µM; in the assay with Microcitoma, 93.3 µM; in the assay with SNC, 75.8 µM; in the assay with Melanoma, 79.4 µM; in the assay on Ovary it was 30.2 µM; with Kidney, 91.2 µM. This compound registered a GI50 with Breast of 77.6 µM. For the same compound, the “GI50 Mean” value in assay [2] is 75.8 µM.

For `c1ccc2c(c1)Cc1c(-c3nnco3)c[nH]c1-2` [Ia, 3-[[1,3,4]Oxadiazol-2′-yl]-1,4-dihydro-indeno[1,2-b]pyrrole], the “GI50 μM) Mean” value in assay [1] is 74.1 µM. In addition, the GI50 in the assay on Leukemia is 79.7 µM; in the assay with Microcitoma it was 57.8 µM; with Colon it was 81.2 µM; in the assay with SNC it was 86.7 µM; in the assay with Melanoma it was 77.3 µM; in the assay on Ovary, 81.2 µM. Also, the figures for the GI50 with Kidney and in the assay with Breast were 67.3 µM and 73.2 µM, respectively. Further, the “GI50 Mean” value in [2] was determined as 74.1 µM.

Take `c1ccc2c(c1)CCc1c(-c3nnco3)c[nH]c1-2` [Ie, 3-[[1,3,4]oxadiazol-2′-yl]-4,5-dihydro-1H-benzo[g]indole]: the “GI50 μM) Mean” value in [1] was 26.6 µM. In addition, the GI50 with Leukemia was 26.3 µM; with Microcitoma it was 21.8 µM; with Colon, 25.7 µM; in the assay on SNC, 28.2 µM; in the assay with Melanoma, 28.8 µM; in the assay with Ovary it was 28.2 µM. Besides, the GI50 in the assay with Kidney amounted to 27.5 µM; with Prostate it was 32.3 µM; in the assay with Breast, 27.5 µM. For the same compound, the “GI50 Mean” value in [2] amounted to 26.3 µM.

With `c1ccc2c(c1)ccc1c(-c3nnco3)c[nH]c12` [Ih, 3-[[1,3,4]oxadiazol-2′-yl]-1H-benzo[g]indole], in assay [1], the “GI50 μM) Mean” value was found to be 35.4 µM. Moreover, the GI50 worked out at 44.6 µM with Leukemia; 22.3 µM in the assay on Microcitoma; 33.8 µM with Colon; 32.3 µM with SNC; 33.8 µM in the assay with Melanoma; 38.9 µM in the assay on Ovary. The values for the GI50 in the assay on Kidney, in the assay with Prostate and with Breast were 38 µM, 62.3 µM and 40 µM, respectively. Further, in assay [2], the “GI50 Mean” value was determined as 35.4 µM.

With `c1ccc(-c2nnc(-c3c[nH]c4c3Cc3ccccc3-4)o2)cc1` [Ic, 3-[[1,3,4]oxadiazole-5′-phenyl-2′-yl]-1,4-dihydro-indeno[1,2-b]pyrrole], the “GI50 μM) Mean” value in assay [1] is 2.9 µM. Also, the GI50 with Leukemia amounted to 1.82 µM; in the assay on Microcitoma it was 3.39 µM; in the assay on Colon, 1 µM; with SNC, 2.95 µM; in the assay with Melanoma, 2.34 µM; with Ovary it was 4.57 µM. For the same compound, the GI50 in the assay on Kidney is 6.31 µM; with Prostate it was 4.78 µM; in the assay on Breast it was 3.16 µM. In addition, the antiproliferative activity entry in [2] is “significant antiproliferative activity”. In assay [2], the “GI50 Mean” value stood at 2.9 µM.

For `Cn1cc(-c2nnco2)c2ccc3ccccc3c21` [Im, 1-methyl-3-[[1,3,4]oxadiazol-2′-yl]-1H-benzo[g]indole], the “GI50 μM) Mean” value in assay [1] came to 33.1 µM. The GI50 in the assay with Leukemia was found to be 54.9 µM; in the assay with Microcitoma, 17.7 µM; in the assay on Colon it was 38.9 µM; with SNC, 23.9 µM; with Melanoma, 43.6 µM; in the assay on Ovary it was 41.6 µM. The GI50 in the assay on Kidney is 20.8 µM; in the assay with Prostate it was 54.9 µM; in the assay on Breast it was 44.6 µM. Further, the “GI50 Mean” value in assay [2] was determined as 33.1 µM.
